Calls of active or inactive are those of the source. No cut-off for these calls is given here.
Experiments:
Tubulin (Homo sapiens) [1] = target: T1, Tubulin (Homo sapiens) (UniProt P68371+Q9H4B7+P0DPH7+P68366+Q13509+Q71U36+P04350+Q3ZCM7+P07437+P68363+Q9BQE3+Q6PEY2+Q13885+Q9BVA1+Q9BUF5); assay: Inhibition of tubulin polymerization in human HepG2 cells assessed as decrease in polymerized alpha tubulin level at 80 nM incubated for 24 hrs in presence of palladium resins by Western blotting analysis; assay type: cell-based
HepG2 [2] = assay: Antiproliferative activity against human HepG2 cells assessed as reduction in cell viability incubated for 72 hrs by CCK-8 assay; assay type: functional, cell-based; conditions: HepG2, 72 h
HepG2 [3] = assay: Select factor, ratio of test compound IC50 to 5-fluoro-N-(3-hydroxy-4-methoxybenzyl)-2-morpholinobenzamide IC50 for antiproliferative activity against human HepG2 cells assessed as reduction in cell viability incubated for 72 hrs by CCK-8 assay; assay type: functional
K562 [4] = assay: Select factor, ratio of test compound IC50 to 5-fluoro-N-(3-hydroxy-4-methoxybenzyl)-2-morpholinobenzamide IC50 for antiproliferative activity against human K562 cells assessed as reduction in cell viability incubated for 72 hrs by CCK-8 assay; assay type: functional
K562 [5] = assay: Induction of cell cycle arrest in human K562 cells assessed as accumulation of cells at S phase at 80 nM incubated for 72 hrs in presence of palladium resins by PI staining based flow cytometric analysis ( Rvb = 14.04 %); assay type: functional
K562 [6] = assay: Induction of cell cycle arrest in human K562 cells assessed as accumulation of cells at G2 phase at 80 nM incubated for 72 hrs in presence of palladium resins by PI staining based flow cytometric analysis ( Rvb = 8.5 %); assay type: functional
K562 [7] = assay: Induction of cell cycle arrest in human K562 cells assessed as accumulation of cells at S phase at 80 nM incubated for 72 hrs by PI staining based flow cytometric analysis ( Rvb = 14.04 %); assay type: functional
K562 [8] = assay: Induction of apoptosis in human K562 cells assessed as chromatin condensation at 80 nM incubated for 72 hrs in presence of palladium resins by Hoechst 33342 staining based fluorescent microscopic analysis; assay type: functional, cell-based
K562 [9] = assay: Induction of apoptosis in human K562 cells assessed as nucleus fragmentation at 80 nM incubated for 72 hrs in presence of palladium resins by Hoechst 33342 staining based fluorescent microscopic analysis; assay type: functional, cell-based
K562 [10] = assay: Induction of apoptosis in human K562 cells assessed as viable cells at 80 nM incubated for 72 hrs by Annexin V-APC staining based flow cytometric analysis (reference value: 94.21%); assay type: functional; conditions: read-out: Activity
K562 [11] = assay: Induction of apoptosis in human K562 cells assessed as early apoptotic cells at 80 nM incubated for 72 hrs by Annexin V-APC staining based flow cytometric analysis (reference value: 2.78%); assay type: functional
K562 [12] = assay: Induction of apoptosis in human K562 cells assessed as necrotic cells at 80 nM incubated for 72 hrs by Annexin V-APC staining based flow cytometric analysis (reference value: 1.65%); assay type: functional
K562 [13] = assay: Induction of apoptosis in human K562 cells assessed as early apoptotic cells at 80 nM incubated for 72 hrs in presence of palladium resins by Annexin V-APC staining based flow cytometric analysis (reference value: 2.78%); assay type: functional
Tubulin (Homo sapiens) [14] = target: T1, Tubulin (Homo sapiens); assay: Disruption of microtubule organization in human K562 cells assessed as appearance of slim microtubules at 80 nM incubated for 72 hrs by DAPI staining based confocal microscopic analysis; assay type: cell-based
Tubulin (Homo sapiens) [15] = target: T1, Tubulin (Homo sapiens); assay: Disruption of microtubule organization in human K562 cells assessed as appearance of fibrous microtubules at 80 nM incubated for 72 hrs by DAPI staining based confocal microscopic analysis; assay type: cell-based
HepG2 [16] = assay: Antiproliferative activity against human HepG2 cells at 100 nM incubated for 72 hrs in presence of palladium resins by CCK-8 assay; assay type: functional, cell-based
Mitochondrial membrane [17] = assay: Induction of mitochondrial membrane potential loss in human K562 cells assessed as increase in green fluorescence intensity at 80 nM incubated for 72 hrs in presence of palladium resins by JC-1 staining based flow cytometric analysis (reference value: 6.74%); assay type: cell membranes
Mitochondrial membrane [18] = assay: Induction of mitochondrial membrane potential loss in human K562 cells assessed as green fluorescence intensity incubated for 72 hrs by JC-1 staining based flow cytometric analysis (reference value: 6.74%); assay type: cell membranes
K562 [19] = assay: Induction of ROS generation in human K562 cells assessed as increase in DCF-positive cells at 80 nM incubated for 72 hrs in presence of palladium resins by DCF-DA staining based flow cytometric analysis (reference value: 7.67%); assay type: functional
HUVEC = assay: Antivascular activity against HUVEC cells assessed as inhibition of cell migration at 80 nM incubated for 24 hrs by phase contrast microscopic analysis; assay type: functional, cell-based; conditions: Homo sapiens
Tubulin (Homo sapiens) [20] = target: T1, Tubulin (Homo sapiens); assay: Inhibition of tubulin polymerization in human HepG2 cells assessed as decrease in alpha tubulin expression at 80 nM incubated for 24 hrs in presence of palladium resins by Western blotting analysis; assay type: cell-based
[21] = target: Bcr/Abl fusion protein (Homo sapiens) (UniProt P00519+P11274); assay: Inhibition of Bcr-Abl in human K562 cells at 80 nM incubated for 24 hrs in presence of palladium resins by Western blotting analysis; assay type: cell-based
Chain of Bcr/Abl fusion protein (Homo sapiens) (P00519 whole entry, looked up, the tested form may be a part): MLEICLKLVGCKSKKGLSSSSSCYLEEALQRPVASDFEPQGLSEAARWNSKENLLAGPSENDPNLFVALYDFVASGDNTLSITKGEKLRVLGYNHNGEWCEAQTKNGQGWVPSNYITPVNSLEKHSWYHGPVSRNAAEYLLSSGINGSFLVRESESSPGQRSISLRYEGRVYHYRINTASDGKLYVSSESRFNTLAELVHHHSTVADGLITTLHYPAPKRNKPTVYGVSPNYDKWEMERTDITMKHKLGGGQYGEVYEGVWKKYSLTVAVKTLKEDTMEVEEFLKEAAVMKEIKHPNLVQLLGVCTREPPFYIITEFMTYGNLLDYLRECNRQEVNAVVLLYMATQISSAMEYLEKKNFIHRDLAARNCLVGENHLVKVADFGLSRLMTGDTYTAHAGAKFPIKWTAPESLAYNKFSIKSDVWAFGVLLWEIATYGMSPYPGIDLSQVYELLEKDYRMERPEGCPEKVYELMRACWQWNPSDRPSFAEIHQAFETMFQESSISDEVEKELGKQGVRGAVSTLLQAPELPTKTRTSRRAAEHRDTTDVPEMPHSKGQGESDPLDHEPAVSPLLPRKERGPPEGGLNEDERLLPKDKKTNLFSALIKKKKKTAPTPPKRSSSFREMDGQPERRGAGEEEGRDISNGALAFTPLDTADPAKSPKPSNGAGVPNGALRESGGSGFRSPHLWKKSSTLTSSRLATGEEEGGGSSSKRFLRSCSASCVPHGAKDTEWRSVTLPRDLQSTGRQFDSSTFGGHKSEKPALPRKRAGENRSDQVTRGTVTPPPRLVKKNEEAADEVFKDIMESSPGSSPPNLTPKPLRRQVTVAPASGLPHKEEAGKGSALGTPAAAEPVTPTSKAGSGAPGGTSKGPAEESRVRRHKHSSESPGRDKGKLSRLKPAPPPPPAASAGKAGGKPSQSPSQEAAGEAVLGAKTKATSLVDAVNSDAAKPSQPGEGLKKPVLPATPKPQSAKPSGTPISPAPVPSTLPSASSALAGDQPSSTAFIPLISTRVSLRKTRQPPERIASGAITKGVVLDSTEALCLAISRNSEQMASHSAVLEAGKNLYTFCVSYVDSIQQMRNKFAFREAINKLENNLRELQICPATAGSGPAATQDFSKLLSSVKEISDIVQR
Chain of Bcr/Abl fusion protein (Homo sapiens) (P11274 whole entry, looked up, the tested form may be a part): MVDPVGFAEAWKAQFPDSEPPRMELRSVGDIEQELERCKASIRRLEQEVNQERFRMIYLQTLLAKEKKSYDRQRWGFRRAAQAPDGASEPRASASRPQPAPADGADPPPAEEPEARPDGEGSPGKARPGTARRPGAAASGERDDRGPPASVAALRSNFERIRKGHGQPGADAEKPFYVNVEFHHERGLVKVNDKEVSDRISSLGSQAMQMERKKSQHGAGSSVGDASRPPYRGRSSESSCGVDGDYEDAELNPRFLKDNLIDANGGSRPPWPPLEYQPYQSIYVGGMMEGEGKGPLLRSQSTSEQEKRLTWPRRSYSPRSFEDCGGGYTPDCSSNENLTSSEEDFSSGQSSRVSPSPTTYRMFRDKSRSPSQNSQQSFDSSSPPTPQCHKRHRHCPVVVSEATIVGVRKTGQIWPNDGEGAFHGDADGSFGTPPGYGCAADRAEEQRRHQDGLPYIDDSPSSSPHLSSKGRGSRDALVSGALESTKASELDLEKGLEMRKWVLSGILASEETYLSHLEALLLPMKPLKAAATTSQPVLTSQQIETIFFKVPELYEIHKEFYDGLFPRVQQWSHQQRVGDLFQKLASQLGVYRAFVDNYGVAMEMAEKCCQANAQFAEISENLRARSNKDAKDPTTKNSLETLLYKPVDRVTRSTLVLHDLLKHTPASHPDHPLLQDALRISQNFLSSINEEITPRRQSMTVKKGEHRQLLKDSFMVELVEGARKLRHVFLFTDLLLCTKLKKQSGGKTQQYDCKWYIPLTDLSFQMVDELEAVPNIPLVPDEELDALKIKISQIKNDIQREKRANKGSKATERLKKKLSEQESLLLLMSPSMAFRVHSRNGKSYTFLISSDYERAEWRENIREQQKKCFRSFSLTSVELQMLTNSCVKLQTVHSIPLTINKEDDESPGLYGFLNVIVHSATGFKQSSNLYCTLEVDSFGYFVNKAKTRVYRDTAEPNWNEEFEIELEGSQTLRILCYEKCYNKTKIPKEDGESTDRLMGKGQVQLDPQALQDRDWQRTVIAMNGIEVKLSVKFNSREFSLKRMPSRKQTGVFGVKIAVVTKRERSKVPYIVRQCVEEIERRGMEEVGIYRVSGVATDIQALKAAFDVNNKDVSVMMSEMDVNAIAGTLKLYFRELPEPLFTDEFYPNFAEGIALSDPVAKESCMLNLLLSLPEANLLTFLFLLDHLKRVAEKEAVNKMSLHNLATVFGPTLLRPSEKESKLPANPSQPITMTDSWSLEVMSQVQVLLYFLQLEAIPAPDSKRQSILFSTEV

HepG2 [22] = assay: Antitumor activity against human HepG2 cells xenografted in Balb/c mouse assessed as tumor growth inhibition at 20 mg/kg, iv administered daily in presence of palladium resins for 14 days relative to control; assay type: functional; conditions: HepG2, 336 h, time 14 day
[23] = Toxicity in Balb/c mouse xenografted with human HepG2 cells assessed as change in body weight at 20 mg/kg, iv administered daily in presence of palladium resins for 14 days and measured every 2 days; assay type: organism-based; conditions: in vivo, 336 h, time 14 day
HepG2 [24] = assay: Antitumor activity against human HepG2 cells xenografted in Balb/c mouse assessed as cell necrosis at 20 mg/kg, iv administered daily for 14 days in presence of palladium resins by H and E staining based analysis; assay type: functional, organism-based; conditions: time 14.0 day
HepG2 [25] = assay: Antitumor activity against human HepG2 cells xenografted in Balb/c mouse assessed as cell necrosis at 20 mg/kg, iv administered daily for 14 days in presence of palladium resins by TUNEL staining based analysis; assay type: functional, organism-based; conditions: time 14.0 day
[26] = Toxicity in Balb/c mouse xenografted with human HepG2 cells assessed as effect on liver at 20 mg/kg, iv administered daily in presence of palladium resins for 14 days by H and E staining based analysis; assay type: organism-based; conditions: in vivo, 336 h, time 14 day
[27] = Toxicity in Balb/c mouse xenografted with human HepG2 cells assessed as effect on spleen at 20 mg/kg, iv administered daily in presence of palladium resins for 14 days by H and E staining based analysis; assay type: organism-based; conditions: in vivo, 336 h, time 14 day
[28] = Toxicity in Balb/c mouse xenografted with human HepG2 cells assessed as effect on kidney at 20 mg/kg, iv administered daily in presence of palladium resins for 14 days by H and E staining based analysis; assay type: organism-based; conditions: in vivo, 336 h, time 14 day
Tubulin (Homo sapiens) [29] = target: T1, Tubulin (Homo sapiens); assay: In vivo inhibition of tubulin polymerization in human HepG2 cells xenografted in Balb/c mouse assessed as decrease in beta tubulin expression at 20 mg/kg, iv administered daily for 14 days in presence of palladium resins incubated for 24 hrs by Western blot analysis; assay type: functional, organism-based; conditions: time 14.0 day

inhibition (Tubulin (Homo sapiens) [1]): Active
IC50 (HepG2 [2]): 1310 nM
Activity (Tubulin (Homo sapiens) [14]): Active
Activity (Tubulin (Homo sapiens) [15]): Active
Activity (Mitochondrial membrane [17]): 54.2%
Activity (Mitochondrial membrane [18]): 8.08%
inhibition (Tubulin (Homo sapiens) [20]): Active
inhibition [21]: Active
Activity (Tubulin (Homo sapiens) [29]): Active
Compound: C#CCOc1cc(CNC(=O)c2cc(F)ccc2N2CCOCC2)ccc1OC
Ratio IC50 (HepG2 [3]): 68.3
Ratio IC50 (K562 [4]): 69.1
Activity (K562 [5]): 29.11%
Activity (K562 [6]): 12.3%
Activity (K562 [7]): 23.64%
Activity (K562 [8]): Active
Activity (K562 [9]): Active
viability at 0.08 µM (K562 [10]): 92.6%
Activity (K562 [11]): 4.26%
Activity (K562 [12]): 1.26%
Activity (K562 [13]): 23.78%
Activity (HepG2 [16]): Active
Activity (K562 [19]): 54.85%
Activity (HUVEC): inactive
inhibition in vivo at 20 mg/kg (HepG2 [22]): 63.2%
Activity [23]: Non-toxic
Activity (HepG2 [24]): Active
Activity (HepG2 [25]): Active
Activity [26]: Non-toxic
Activity [27]: Non-toxic
Activity [28]: Non-toxic
